In patent US20240050428A1 (Cullgen (Shanghai), Inc., priority 2020, published 2024):
Read-outs that look alike come from different tables or passages of the source.

Tests used:
MV4;11 cells = test: Cell viability assay (CellTiter-Glo) in MV4;11 cells, alone or with gilteritinib; type: cell-based; conditions: MV4;11 cells, three days, CellTiter-Glo, read-out: MV4
MOLM-13 cells = test: Cell viability assay (CellTiter-Glo) in MOLM-13 cells, alone or with gilteritinib; type: cell-based; conditions: MOLM-13 cells, three days, CellTiter-Glo
[1] = Homo sapiens, 72 h, compound alone (without gilteritinib), 11 IC50
[2] = Homo sapiens, 72 h, with gilteritinib 10 nM, 11 IC50 gilteritinib
[3] = Homo sapiens, 72 h, compound alone (without gilteritinib), read-out: MOLM-13 IC50
[4] = Homo sapiens, 72 h, with gilteritinib 20 nM, read-out: MOLM-13 IC50 gilteritinib
[5] = Homo sapiens, MV4-11, 72 h, compound alone (without gilteritinib), 11 IC50
[6] = Homo sapiens, MV4-11, 72 h, compound with gilteritinib 10 nM, 11 IC50 gilteritinib
[7] = Homo sapiens, MOLM-13, 72 h, compound alone (without gilteritinib), read-out: MOLM-13 IC50
[8] = Homo sapiens, MOLM-13, 72 h, compound with gilteritinib 20 nM, read-out: MOLM-13 IC50 gilteritinib
[9] = Homo sapiens, MV4-11, 72 h, with gilteritinib 10 nM, 11 IC50 gilteritinib
[10] = Homo sapiens, MOLM-13, 72 h, with gilteritinib 20 nM, read-out: MOLM-13 IC50 gilteritinib

Row | IC50 (MV4;11 cells; [5]) | IC50 (MV4;11 cells; [6]) | IC50 (MOLM-13 cells; [7]) | IC50 (MOLM-13 cells; [8]) | IC50 (MV4;11 cells; [9]) | IC50 (MOLM-13 cells; [10]) | Structure (SMILES) | also measured
1 |  |  |  |  |  |  | O=C1CCC(N2C(=O)c3ccc(NCCNc4cccc(-n5cc(-c6cnc7ccccc7n6)cn5)c4)cc3C2=O)C(=O)N1 (centres unmarked) [GS-353, 2-(2,6-Dioxopiperidin-3-yl)-5-((2-((3-(4-(quinoxalin-2-yl)-1H-pyrazol-1-yl)phenyl)amino)ethyl)amino)isoindoline-1,3-dione] | IC50 (MV4;11 cells; [1]): 100 to 1000 nM; IC50 (MV4;11 cells; [2]): 10 to 100 nM; IC50 (MOLM-13 cells; [3]): > 1000 nM; IC50 (MOLM-13 cells; [4]): 10 to 100 nM
2 | 10 to 100 nM | < 10 nM | 10 to 100 nM | < 10 nM |  |  | CN1CCN(c2ccc3ncc(-c4cn([C@H]5C[C@H](CNc6ccc7c(c6)C(=O)N(C6CCC(=O)NC6=O)C7=O)C5)nc4C4CC4)nc3c2)CC1 (stereo partly drawn) [GS-463, 5-(((trans-3-(3-cyclopropyl-4-(7-(4-methylpiperazin-1-yl)quinoxalin-2-yl)-1H-pyrazol-1-yl)cyclobutyl)methyl)amino)-2-(2,6-dioxopiperidin-3-yl)isoindoline-1,3-dione] | 
3 | 100 to 1000 nM |  | 100 to 1000 nM |  | 10 to 100 nM | 10 to 100 nM | O=C1CCC(N2C(=O)c3ccc(NCCC[C@H]4C[C@H](n5cc(-c6cnc7c(N8CCOCC8)cccc7n6)cn5)C4)cc3C2=O)C(=O)N1 (stereo partly drawn) [GS-403, 2-(2,6-Dioxopiperidin-3-yl)-5-((3-(trans-3-(4-(5-morpholinoquinoxalin-2-yl)-1H-pyrazol-1-yl)cyclobutyl)propyl)amino)isoindoline-1,3-dione] | 
4 | 100 to 1000 nM | 10 to 100 nM | 100 to 1000 nM | 10 to 100 nM |  |  | CN1CCN(c2ccnc(-c3cnn([C@H]4C[C@H](CCCNc5ccc6c(c5)C(=O)N(C5CCC(=O)NC5=O)C6=O)C4)c3)n2)CC1 (stereo partly drawn) [GS-423, 2-(2,6-dioxopiperidin-3-yl)-5-((3-(trans-3-(4-(4-(4-methylpiperazin-1-yl)pyrimidin-2-yl)-1H-pyrazol-1-yl)cyclobutyl)propyl)amino)isoindoline-1,3-dione] | 
5 | 100 to 1000 nM |  | > 1000 nM |  | > 1000 nM | > 1000 nM | O=C1CCC(N2Cc3cc(NCCCCCC4(N5CCC(n6cc(-c7cnc8ccccc8n7)cn6)CC5)CC4)ccc3C2=O)C(=O)N1 (centres unmarked) [GS-126, 3-(1-Oxo-5-((5-(1-(4-(4-(quinoxalin-2-yl)-1H-pyrazol-1-yl)piperidin-1-yl)cyclopropyl)pentyl)amino)isoindolin-2-yl)piperidine-2,6-dione] | 
6 | < 10 nM |  | 10 to 100 nM |  | < 10 nM | < 10 nM | O=C1CCC(N2Cc3ccc(CCCCCC(=O)N4CCC(n5cc(-c6cnc7ccccc7n6)cn5)CC4)cc3C2=O)C(=O)N1 (centres unmarked) [GS-101, 3-(1-Oxo-6-(6-oxo-6-(4-(4-(quinoxalin-2-yl)-1H-pyrazol-1-yl)piperidin-1-yl)hexyl)isoindolin-2-yl)piperidine-2,6-dione] | 
7 | 10 to 100 nM |  | 100 to 1000 nM |  | 10 to 100 nM | 10 to 100 nM | O=C1CCC(N2C(=O)c3ccc(NC[C@H]4C[C@H](n5cc(-c6cnc7ccccc7n6)cn5)C4)cc3C2=O)C(=O)N1 (stereo partly drawn) [GS-178, 2-(2,6-Dioxopiperidin-3-yl)-5-(((trans-3-(4-(quinoxalin-2-yl)-1H-pyrazol-1-yl)cyclobutyl)methyl)amino)isoindoline-1,3-dione] | 
8 | 10 to 100 nM |  | 10 to 100 nM |  | < 10 nM | < 10 nM | O=C1CCC(N2C(=O)c3ccc(NCCCCC(=O)N4CCC(n5cc(-c6cnc7ccc(N8CCNCC8)cc7n6)c(C6CC6)n5)CC4)cc3C2=O)C(=O)N1 (centres unmarked) [GS-211, 5-((5-(4-(3-Cyclopropyl-4-(7-(piperazin-1-yl)quinoxalin-2-yl)-1H-pyrazol-1-yl)piperidin-1-yl)-5-oxopentyl)amino)-2-(2,6-dioxopiperidin-3-yl)isoindoline-1,3-dione] | 
9 | > 1000 nM | > 1000 nM | > 1000 nM | 100 to 1000 nM |  |  | CN1CCN(c2cccc(-c3cnn([C@H]4C[C@H](CNc5ccc6c(c5)C(=O)N(C5CCC(=O)NC5=O)C6=O)C4)c3)n2)CC1 (stereo partly drawn) [GS-416, 2-(2,6-dioxopiperidin-3-yl)-5-(((trans-3-(4-(6-(4-methylpiperazin-1-yl)pyridin-2-yl)-1H-pyrazol-1-yl)cyclobutyl)methyl)amino)isoindoline-1,3-dione] | 
10 | < 10 nM | < 10 nM | < 10 nM | < 10 nM |  |  | O=C1CCC(N2Cc3cc(NC(=O)Cc4cccc(N5CCC(n6cc(-c7cnc8ccccc8n7)cn6)CC5)c4)ccc3C2=O)C(=O)N1 (centres unmarked) [GS-495, N-(2-(2,6-dioxopiperidin-3-yl)-1-oxoisoindolin-5-yl)-2-(3-(4-(4-(quinoxalin-2-yl)-1H-pyrazol-1-yl)piperidin-1-yl)phenyl)acetamide] | 
11 | 100 to 1000 nM | > 1000 nM | > 1000 nM | 100 to 1000 nM |  |  | CN1CCC(c2cnn([C@H]3C[C@H](CCCNc4ccc5c(c4)C(=O)N(C4CCC(=O)NC4=O)C5=O)C3)c2)CC1 (stereo partly drawn) [GS-435, 2-(2,6-dioxopiperidin-3-yl)-5-((3-(trans-3-(4-(1-methylpiperidin-4-yl)-1H-pyrazol-1-yl)cyclobutyl)propyl)amino)isoindoline-1,3-dione] | 
12 | > 1000 nM |  | > 1000 nM |  | > 1000 nM | > 1000 nM | O=C(CN1CC(N2CCN(c3ccccn3)CC2)C1)NCc1ccc2c(c1)C(=O)N(C1CCC(=O)NC1=O)C2=O (centres unmarked) [GS-345, N-((2-(2,6-Dioxopiperidin-3-yl)-1,3-dioxoisoindolin-5-yl)methyl)-2-(3-(4-(pyridin-2-yl)piperazin-1-yl)azetidin-1-yl)acetamide] | 
13 | > 1000 nM |  | > 1000 nM |  | 100 to 1000 nM | > 1000 nM | O=C(CC1CCCC(N2CCC(n3cc(-c4cnc5ccccc5n4)cn3)CC2)C1)NCc1ccc2c(c1)CN(C1CCC(=O)NC1=O)C2=O (centres unmarked) [GS-086, N-((2-(2,6-dioxopiperidin-3-yl)-1-oxoisoindolin-5-yl)methyl)-2-(3-(4-(4-(quinoxalin-2-yl)-1H-pyrazol-1-yl)piperidin-1-yl)cyclohexyl)acetamide] | 
14 | > 1000 nM |  | > 1000 nM |  | 10 to 100 nM | 10 to 100 nM | Cc1cccc(-c2cn([C@H]3C[C@H](CNc4ccc5c(c4)C(=O)N(C4CCC(=O)NC4=O)C5=O)C3)nc2C2CCOCC2)n1 (stereo partly drawn) [GS-071, 2-(2,6-Dioxopiperidin-3-yl)-5-(((trans-3-(4-(6-methylpyridin-2-yl)-3-(tetrahydro-2H-pyran-4-yl)-1H-pyrazol-1-yl)cyclobutyl)methyl)amino)isoindoline-1,3-dione] | 
15 | > 1000 nM |  | > 1000 nM |  | 100 to 1000 nM | 100 to 1000 nM | O=C1CCC(N2Cc3cc(Nc4ccnc(Nc5ccc6c(c5)CC(N5CCC(n7cc(-c8cnc9cccc(Br)c9n8)cn7)CC5)C6)n4)ccc3C2=O)C(=O)N1 (centres unmarked) [GS-072, 3-(5-((2-((2-(4-(4-(8-Bromoquinoxalin-2-yl)-1H-pyrazol-1-yl)piperidin-1-yl)-2,3-dihydro-1H-inden-5-yl)amino)pyrimidin-4-yl)amino)-1-oxoisoindolin-2-yl)piperidine-2,6-dione] | 
16 | 10 to 100 nM | < 10 nM | 10 to 100 nM | 10 to 100 nM |  |  | O=C1CCC(N2C(=O)c3ccc(NC[C@H]4C[C@H](n5cc(-c6ncccc6C6CC6)c(C6CC6)n5)C4)cc3C2=O)C(=O)N1 (stereo partly drawn) [GS-467, 5-(((trans-3-(3-cyclopropyl-4-(3-cyclopropylpyridin-2-yl)-1H-pyrazol-1-yl)cyclobutyl)methyl)amino)-2-(2,6-dioxopiperidin-3-yl)isoindoline-1,3-dione] | 
17 |  |  |  |  |  |  | O=C1CCC(N2C(=O)c3ccc(NCCCN4CC(N5CCN(c6ccccn6)CC5)C4)cc3C2=O)C(=O)N1 (centres unmarked) | IC50 (MV4;11 cells; [1]): > 1000 nM; IC50 (MV4;11 cells; [2]): > 1000 nM; IC50 (MOLM-13 cells; [3]): > 1000 nM; IC50 (MOLM-13 cells; [4]): 10 to 100 nM
18 |  | 100 to 1000 nM |  | 10 to 100 nM |  |  | CN1CCN(c2cccc(-c3cnn([C@H]4C[C@H](CCCNc5ccc6c(c5)C(=O)N(C5CCC(=O)NC5=O)C6=O)C4)c3)n2)CC1 (stereo partly drawn) [GS-413, 2-(2,6-dioxopiperidin-3-yl)-5-((3-(trans-3-(4-(6-(4-methylpiperazin-1-yl)pyridin-2-yl)-1H-pyrazol-1-yl)cyclobutyl)propyl)amino)isoindoline-1,3-dione] | IC50 (MV4;11 cells; compound alone (without gilteritinib), 11 IC50): 100 to 1000 nM; IC50 (MOLM-13 cells; compound alone (without gilteritinib), read-out: MOLM-13 IC50): > 1000 nM
19 | 10 to 100 nM | < 10 nM | 10 to 100 nM | < 10 nM |  |  | Cc1nn([C@H]2C[C@H](CCCNc3ccc4c(c3)C(=O)N(C3CCC(=O)NC3=O)C4=O)C2)cc1-c1cnc2c(C3CCN(C)CC3)cccc2n1 (stereo partly drawn) [GS-418, 2-(2,6-dioxopiperidin-3-yl)-5-((3-(trans-3-(3-methyl-4-(5-(1-methylpiperidin-4-yl)quinoxalin-2-yl)-1H-pyrazol-1-yl)cyclobutyl)propyl)amino)isoindoline-1,3-dione] | 
20 | 10 to 100 nM | 10 to 100 nM | 100 to 1000 nM | 10 to 100 nM |  |  | O=C1CCC(N2C(=O)c3ccc(NC[C@H]4C[C@H](n5cc(-c6cccc(OC7CC7)n6)c(C6CC6)n5)C4)cc3C2=O)C(=O)N1 (stereo partly drawn) [GS-471, 5-(((trans-3-(4-(6-cyclopropoxypyridin-2-yl)-3-cyclopropyl-1H-pyrazol-1-yl)cyclobutyl)methyl)amino)-2-(2,6-dioxopiperidin-3-yl)isoindoline-1,3-dione] | 
